Like-named read-outs stand apart in the source and are kept apart here.
Experiments:
Recombinant JAK1 = biological target: T1, Recombinant JAK1 (Homo sapiens, UniProt P23458); test: JAK biochemical assay (LANCE Ultra TR-FRET), JAK1
T1 construct: purchased Carna Biosciences
In short: (§1)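 TR-FRET read-out of ULight substrate phosphorylation by recombinant kinase gives % inhibition relative to vehicle. The assay buffer is HEPES pH 7.5 with EGTA, MgCl2, DTT and Tween-20.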

Recombinant JAK2 = biological target: T2, Recombinant JAK2 (Homo sapiens, UniProt O60674); test: JAK biochemical assay (LANCE Ultra TR-FRET), JAK2
T2 construct: purchased Carna Biosciences
T2 sequence (O60674 whole entry): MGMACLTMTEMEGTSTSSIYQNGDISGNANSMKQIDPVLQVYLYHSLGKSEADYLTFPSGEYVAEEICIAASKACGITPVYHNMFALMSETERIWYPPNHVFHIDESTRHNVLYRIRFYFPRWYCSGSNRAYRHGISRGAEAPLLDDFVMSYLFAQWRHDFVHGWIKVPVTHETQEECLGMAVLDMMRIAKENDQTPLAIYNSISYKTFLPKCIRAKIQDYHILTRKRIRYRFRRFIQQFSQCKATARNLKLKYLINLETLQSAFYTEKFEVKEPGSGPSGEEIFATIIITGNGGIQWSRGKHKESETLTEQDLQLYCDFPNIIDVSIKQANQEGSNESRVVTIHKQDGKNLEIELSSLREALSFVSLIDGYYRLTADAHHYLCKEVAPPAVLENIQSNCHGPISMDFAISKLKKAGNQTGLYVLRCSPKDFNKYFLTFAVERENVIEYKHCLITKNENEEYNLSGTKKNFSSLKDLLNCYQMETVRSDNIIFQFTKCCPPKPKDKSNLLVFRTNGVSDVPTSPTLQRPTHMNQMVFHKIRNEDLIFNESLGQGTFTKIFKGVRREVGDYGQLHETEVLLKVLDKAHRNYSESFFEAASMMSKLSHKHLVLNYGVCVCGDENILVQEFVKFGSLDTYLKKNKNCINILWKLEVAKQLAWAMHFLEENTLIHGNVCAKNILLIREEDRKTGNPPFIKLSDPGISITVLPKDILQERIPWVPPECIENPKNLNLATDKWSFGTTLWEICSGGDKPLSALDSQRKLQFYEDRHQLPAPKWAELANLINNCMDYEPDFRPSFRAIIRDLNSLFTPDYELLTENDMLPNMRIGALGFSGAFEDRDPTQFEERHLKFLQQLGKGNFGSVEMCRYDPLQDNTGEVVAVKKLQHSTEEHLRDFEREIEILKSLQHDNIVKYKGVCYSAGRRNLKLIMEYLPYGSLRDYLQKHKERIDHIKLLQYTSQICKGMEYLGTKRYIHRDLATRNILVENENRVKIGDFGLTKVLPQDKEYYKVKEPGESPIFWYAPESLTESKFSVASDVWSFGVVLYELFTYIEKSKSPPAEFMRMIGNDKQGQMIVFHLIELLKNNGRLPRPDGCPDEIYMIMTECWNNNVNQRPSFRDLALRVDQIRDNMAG
In short: as §1

Recombinant TYK2 = biological target: T3, Recombinant TYK2 (Homo sapiens, UniProt P29597); test: JAK biochemical assay (LANCE Ultra TR-FRET), TYK2
T3 construct: purchased Carna Biosciences
T3 sequence (P29597 whole entry): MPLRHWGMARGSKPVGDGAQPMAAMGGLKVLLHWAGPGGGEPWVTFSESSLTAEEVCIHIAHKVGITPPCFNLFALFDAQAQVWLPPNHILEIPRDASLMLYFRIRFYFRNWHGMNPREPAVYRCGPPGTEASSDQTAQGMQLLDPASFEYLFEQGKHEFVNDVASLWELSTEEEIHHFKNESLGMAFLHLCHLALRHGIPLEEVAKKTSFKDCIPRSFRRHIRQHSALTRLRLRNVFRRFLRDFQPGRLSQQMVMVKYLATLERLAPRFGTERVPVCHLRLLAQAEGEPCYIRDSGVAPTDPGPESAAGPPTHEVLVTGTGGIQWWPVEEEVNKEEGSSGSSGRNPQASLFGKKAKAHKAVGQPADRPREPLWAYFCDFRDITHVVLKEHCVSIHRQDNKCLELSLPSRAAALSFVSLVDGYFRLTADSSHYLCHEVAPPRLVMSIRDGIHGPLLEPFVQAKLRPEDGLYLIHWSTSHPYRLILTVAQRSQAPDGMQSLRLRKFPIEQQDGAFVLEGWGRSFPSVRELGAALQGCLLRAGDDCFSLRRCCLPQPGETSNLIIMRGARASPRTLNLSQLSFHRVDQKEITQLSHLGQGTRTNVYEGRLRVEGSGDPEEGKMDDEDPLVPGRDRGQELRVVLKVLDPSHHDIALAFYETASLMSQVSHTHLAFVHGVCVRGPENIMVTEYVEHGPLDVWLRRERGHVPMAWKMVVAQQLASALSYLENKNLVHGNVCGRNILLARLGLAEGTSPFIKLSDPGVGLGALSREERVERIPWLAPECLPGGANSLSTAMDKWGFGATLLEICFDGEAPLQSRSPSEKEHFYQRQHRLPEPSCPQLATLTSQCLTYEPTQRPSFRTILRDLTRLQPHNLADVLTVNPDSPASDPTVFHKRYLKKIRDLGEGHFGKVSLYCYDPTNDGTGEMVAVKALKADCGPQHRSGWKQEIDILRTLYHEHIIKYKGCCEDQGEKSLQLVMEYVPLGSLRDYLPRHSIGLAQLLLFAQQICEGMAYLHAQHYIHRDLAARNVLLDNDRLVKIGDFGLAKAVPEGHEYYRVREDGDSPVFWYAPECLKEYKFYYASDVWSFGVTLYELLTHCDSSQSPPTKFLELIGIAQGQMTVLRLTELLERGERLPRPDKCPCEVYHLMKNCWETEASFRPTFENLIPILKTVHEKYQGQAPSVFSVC
In short: as §1

[1] = system: STAT3 phosphorylation by IL-6 in TF-1 cells; test: JAK cellular assay: STAT3 phosphorylation by IL-6 in TF-1 cells (HTRF); format: cell-based; conditions: Homo sapiens, TF-1, TF-1 cells
In short: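 TF-1 cells starved overnight in low-serum OptiMEM, then 120,000/well in RPMI, preincubated with compound 30 min at 37 °C (0.2% DMSO final). Stimulation 20 min with IL-6 30 ng/ml (pSTAT3) or GMCSF 5 ng/ml (pSTAT5); lysate phospho-STAT by HTRF, unstimulated background subtracted.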

[2] = system: STAT5 phosphorylation by IL-2 in HT-2 cells; test: STAT5 phosphorylation by IL-2 in HT-2 cells (HTRF); format: cell-based; conditions: HT2, HT-2 cells
In short: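 Starved HT-2 cells (120,000/well) were preincubated 30 min at 37 °C with compound (0.2% DMSO), then stimulated 20 min with human IL-2 (50 U/ml). pSTAT5 in lysates measured by HTRF, with unstimulated-cell background subtracted.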

[3] = system: IFN-γ production in NK 92 cells by IL-12; test: IFN-γ production in NK 92 cells by IL-12 (ELISA); conditions: NK92, IFN-γ detection from cell supernatants, read-out: Cell based IC50 (μM) NK-92/IL-12*
Protocol: NK 92 cells were cultured in medium without IL-2 for overnight. Next day, 5000 cells per well NK 92 cells were seeded in a 96 well plate. Compounds were added to cells and incubated for 1 hour. Later IL-12, 10 U/ml was added to cells and incubated for overnight. Supernatant was collected from the wells and IFN-7 secretion was measured by using human IFN-7 ELISA kit. Absorbance was measured at 450 nm in BMG FLUOstar. Background signal obtained from cells which were not activated with cytokines, was subtracted from vehicle controls and compound treated wells.

[4] = system: collagen induced mouse arthritis model; test: Mouse model of rheumatoid arthritis (collagen induced arthritis); format: in vivo; conditions: orally dosed, QD for 21 days; reference filgotinib
From the text: Rheumatoid arthritis (RA) is an autoimmune disease that can cause joint pain and damage throughout the body. Several cytokines such as IL-6 and IFN-γ activate the Janus kinase/signal transducers and activators of transcription (JAK/STAT) pathway. Inhibition of JAK/STAT pathway is considered as one of the therapeutic options for treatment of rheumatoid arthritis. Rodent models of arthritis can be used to evaluate the therapeutic potential of compounds dosed preventatively or therapeutically. These models include but are not limited to mouse or rat collagen-induced arthritis, rat adjuvant-induced arthritis, and collagen antibody-induced arthritis.
Compounds described herein are tested for JAK/STAT pathway inhibition driven efficacy in collagen induced mouse arthritis model. Compounds were orally dosed, QD for 21 days and at the end of the study, clinical symptoms, body weight and histopathology of ankle and paws were measured. Arthritis score was calculated for the compounds as well as reference standard, filgotinib.

[5] = system: Imiquimod induced dermatitis in mice; test: Mouse model of Imiquimod induced psoriasis; format: in vivo, Female BALB/c mice; conditions: 3% topical, QD; for back skin thickness / cumulative psoriasis score compared to vehicle / ear thickness: IMQ induced psoriasis, mice
Protocol: Imiquimod (IMQ) induced dermatitis closely resembles human psoriasis lesions not only with regard to phenotypic and histological characteristics but also in the development of the lesions. IMQ is a ligand for toll-like receptor 7 (TLR7) and TLR8, and is a potent immune activator. […] Migration of activated dermal dendritic cells to lymph nodes in skin triggers a sequence of events leading to late phase of psoriasis. Compounds described herein are tested for JAK inhibition driven efficacy in Imiquimod induced dermatitis in mice.
Female BALB/c mice were topically dosed with 3% cream formulation containing test compounds. After four hours of test compound administration, 5% Imiquimod was applied on back skin and right ear for five days. On day 6, post dosing with test compounds, the severity of psoriasis was monitored and graded following Psoriasis Area and Severity Index (PASI). Efficacies of the compounds were evaluated based on PASI score. Redness, thickness and scaling of back skin and ear were assessed among the groups for scoring.

[6] = read-out: Biochemical IC50 (nM) JAK1
[7] = recombinant JAK1, TR-FRET, read-out: Biochemical Assay (μM) JAK1
[8] = read-out: Biochemical IC50 (nM) JAK2
[9] = read-out: Biochemical IC50 (nM) TYK2
[10] = recombinant TYK2, TR-FRET, read-out: Biochemical Assay (μM) TYK2
[11] = IL-6 30 ng/ml, pSTAT3 HTRF, read-out: Cell Based Assay (μM) TF-1/IL-6/pSTAT3
[12] = IL-6 stimulation, read-out: Cell based IC50 (μM) TF-1/IL-6
[13] = IL-2 50 U/ml, pSTAT5 HTRF, read-out: Cell Based Assay (μM) HT-2/IL-2/pSTAT5
[14] = IL-2 stimulation, read-out: Cell based IC50 (μM) HT-2/IL-2

T1 sequence (P23458 whole entry): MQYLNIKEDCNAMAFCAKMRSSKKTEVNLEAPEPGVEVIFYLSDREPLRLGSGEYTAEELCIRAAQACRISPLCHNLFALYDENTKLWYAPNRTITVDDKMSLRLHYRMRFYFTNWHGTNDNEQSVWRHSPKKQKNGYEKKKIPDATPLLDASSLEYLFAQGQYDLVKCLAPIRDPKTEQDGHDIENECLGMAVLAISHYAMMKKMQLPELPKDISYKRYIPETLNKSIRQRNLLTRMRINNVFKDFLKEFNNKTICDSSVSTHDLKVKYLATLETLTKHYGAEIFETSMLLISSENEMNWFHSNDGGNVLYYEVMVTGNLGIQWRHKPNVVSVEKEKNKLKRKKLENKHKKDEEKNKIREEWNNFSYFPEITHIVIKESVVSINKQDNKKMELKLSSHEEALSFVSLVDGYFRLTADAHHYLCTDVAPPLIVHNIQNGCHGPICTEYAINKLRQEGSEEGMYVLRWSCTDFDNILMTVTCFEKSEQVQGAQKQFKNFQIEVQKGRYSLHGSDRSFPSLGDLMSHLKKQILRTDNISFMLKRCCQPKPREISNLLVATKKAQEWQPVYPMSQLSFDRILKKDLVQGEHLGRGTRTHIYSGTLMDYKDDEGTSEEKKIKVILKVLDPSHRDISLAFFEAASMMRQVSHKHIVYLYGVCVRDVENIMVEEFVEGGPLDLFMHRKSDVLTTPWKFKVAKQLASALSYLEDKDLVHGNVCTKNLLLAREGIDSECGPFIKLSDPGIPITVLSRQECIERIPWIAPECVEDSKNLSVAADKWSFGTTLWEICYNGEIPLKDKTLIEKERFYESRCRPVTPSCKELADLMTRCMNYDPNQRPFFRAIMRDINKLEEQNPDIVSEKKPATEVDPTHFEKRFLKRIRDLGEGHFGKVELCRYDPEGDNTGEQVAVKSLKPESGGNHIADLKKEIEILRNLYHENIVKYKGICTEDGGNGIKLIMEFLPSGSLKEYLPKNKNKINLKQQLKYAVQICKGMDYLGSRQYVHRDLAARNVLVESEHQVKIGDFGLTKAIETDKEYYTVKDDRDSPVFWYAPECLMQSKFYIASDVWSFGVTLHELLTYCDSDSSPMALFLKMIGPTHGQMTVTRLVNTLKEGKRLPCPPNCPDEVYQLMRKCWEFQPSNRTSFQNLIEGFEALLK

For `CN1CCC(C(O)(c2ccc(-n3cc(-c4ccnc5[nH]cnc45)cn3)nc2)C(F)(F)F)CC1` (stereo not drawn) [Example 1133, 1-(6-(4-(3H-imidazo[4,5-b]pyridin-7-yl)-1H-pyrazol-1-yl)pyridin-3-yl)-2,2,2-trifluoro-1-(1-methylpiperidin-4-yl)ethanol], the IC50 (Recombinant JAK1; [6]) was 8 nM, the IC50 (Recombinant JAK1; [7]) was < 100 nM and the IC50 (Recombinant JAK2; [8]) was 152 nM. For the same molecule, the IC50 (Recombinant TYK2; [9]) was 850 nM, the IC50 (Recombinant TYK2; [10]) was > 1000 nM and the IC50 [1, 11] was 0.6 µM. For the same molecule, the IC50 [1, 12] was 0.6 µM, the IC50 [2, 13] was 2.3 µM and the IC50 [2, 14] was 2.3 µM. The IC50 [3] was > 10 µM, the “efficacy (arthritis score) in collagen induced mouse arthritis model” value [4] was “very good efficacy” and the back skin thickness [5] was “significant decrease”. The “cumulative psoriasis score compared to vehicle” value [5] was “statistically significant decrease” and the ear thickness [5] was “significant decrease”.

For `CC(C)NC(=O)CC[C@@H](c1ccc(-n2cc(-c3ccnc4[nH]cnc34)cn2)nc1)C(F)(F)F` [Example 1215, (S)-4-(6-(4-(3H-imidazo[4,5-b]pyridin-7-yl)-1H-pyrazol-1-yl)pyridin-3-yl)-5,5,5-trifluoro-N-isopropylpentanamide], the IC50 (Recombinant JAK1; [6]) was 0.5 nM, the IC50 (Recombinant JAK1; [7]) was < 100 nM and the IC50 (Recombinant JAK2; [8]) was 40 nM. The IC50 (Recombinant JAK2; recombinant JAK2, TR-FRET, read-out: Biochemical Assay (μM) JAK2) was < 100 nM, the IC50 (Recombinant TYK2; [9]) was > 100 nM and the IC50 (Recombinant TYK2; [10]) was > 1000 nM. For the same molecule, the IC50 [1, 11] was 0.32 µM, the IC50 [1, 12] was 0.3 µM and the IC50 [2, 13] was 0.75 µM. The IC50 [2, 14] was 0.7 µM, the IC50 [3] was > 10 µM and the “efficacy (arthritis score) in collagen induced mouse arthritis model” value [4] was “very good efficacy”. For the same molecule, the “efficacy compared to 1133 and reference compound filgotinib (psoriasis model)” value [5] was “better efficacy”, the back skin thickness [5] was “significant decrease” and the “cumulative psoriasis score compared to vehicle” value [5] was “statistically significant decrease”. The ear thickness [5] was “significant decrease”.
